Read-outs that look alike come from different tables or passages of the source.
Experiments:
[1] = tested on: peripheral human leukocytes; test: Inhibition of anti-IgE-induced histamine liberation from peripheral human leukocytes; assay type: cell-based
Source text: (§1) For the detection of the anti-allergic action, there was used the inhibition of the proteinase liberation from peripheral human leukocytes induced by anti-IgE antibodies (Wilhelmset et al. XII Congress Europ. Acad. Allergology Clin. Immunology, Rome, Sep. 25--3), 1983, as well as DE-Al-34 46 714) or of the histamine liberation in an analogous process according to a further development of the method of R. P. Siraganian and W. A. Hook (Manual of Clinical Immunology, 2nd edition, 1980, pub. N. R. Rose and H. Friedman, Am. Soc. for Microbiology, pages 808 to 821).
(§2) Description of the Test System for the Testing for Mediator Liberation Inhibition from Human Leukocytes in Vitro
(§3) The liberation of proteinase on isolated human leukocytes is initiated by stimulation with anti-IgE antibodies (IgE-mediated mediator liberation from basophilic granulocytes). The intensity of this liberation reaction is determined by substrate addition (chromozyme TH) and photometric measurement in that the colour intensity of the samples±inhibitor addition are compared.
(§4) Buffy-coat cells=concentrated cell suspension from blood preserve.
(§5) In the following Table I are reproduced the inhibition values of the anti-IgE-induced liberation of histamine and proteinase from peripheral human leukocytes. As comparison substance, there was used the known degranulation inhibitor theophylline.

[2] = tested on: peripheral human leukocytes; test: Inhibition of anti-IgE-induced proteinase liberation from peripheral human leukocytes; assay type: cell-based
Source text: as §1, §2, §3, §4, §5

[3] = tested on: guinea pig lung parenchyma strips; test: Inhibition of the antigen-caused constriction of passively sensitised guinea pig lung parenchyma strips in vitro (organ bath); set-up: key to R = relaxation: R: relaxation; conditions: for inhibition at 40 µg/mL / inhibition at 10 µg/mL: Cavia porcellus
Description: As further detection for the anti-allergic action, there was investigated the inhibition of the antigen-caused constriction of passive sensitised guinea pig lung parenchyma strips in vitro.
Inhibition of the Antigen-Caused Construction of Passively Sensitised Guinea Pig Lung Parenchyma Strips in Vitro (Organ Bath)
For the in vitro investigation of the compounds according to the invention, there was measured the inhibition of the antigen-caused constriction on passively sensitised guinea pig lung parenchyma strips, as described in the following.
Pirbright white guinea pigs were stunned by neck blow and exsanguinated. The lungs were rinsed in situ substantially free of blood with Krebs buffer, pH 7.4.
Subsequently, the lung was removed, cut up into strips (about 20×4×4 mm) and the strips passively sensitised for 1 hour at room temperature with a 1:50 dilution of a homologous anti-ovalbumin antiserum and then washed with Krebs buffer 1×.
The antiserum had been previously produced in guinea pigs of the same strain according to Davies G. E., T. P. Johnstone (Quantitative studies on anaphylaxis in guinea pigs passively sensitised with homologous antibody; Inter. Arch. 41, 648-654 (1971)) by repeated injection of ovalbumin (2×crystallised) with the addition of complete Freund's adjuvant.
Up to its use, the antiserum was stored undiluted at -18° C.
Subsequently, the lung strips were suspended individually in 10 ml. waterbaths with a prestressing of 1.2 g on an isometric measurement recorder.
Thereafter, the waterbaths were filled with Krebs buffer and continuously gassed at 37° C. with O2 (95%) and CO2 (5%).
The constructions of the lung strips were recorded on a disc via an amplifier.
After 30 minutes acclimatisation phase, histamine control spasms were produced for the recognition of the reaction ability of the organ pieces, washed, subsequently the test substance pre-incubated for 20 minutes at 37° C. and thereafter the ovalbumin-caused constriction initiated.
The inhibition actions of the compounds according to the invention were expressed as percentage reduction of the constriction amplitude of the "samples with test substance" in comparison with the "untreated control constrictions".

[4] = tested on: lettuce seeds (Lactuca sativa); conditions: cited from earlier work
plant growth = conditions: cited from earlier work
[5] = substance 10.00 mcg/ml, A = histamine 1.0 mcg/ml
[6] = substance 10.00 mcg/ml, B = ovalbumin 0.1 mcg/ml
[7] = substance 10.00 mcg/ml, C = glucose 1.16 %
[8] = substance 10.00 mcg/ml, D = ovalbumin 1.0 mcg/ml
[9] = substance 40.00 mcg/ml, A = histamine 1.0 mcg/ml
[10] = substance 40.00 mcg/ml, B = ovalbumin 0.1 mcg/ml
[11] = substance 40.00 mcg/ml, C = glucose 1.16 %
[12] = substance 40.00 mcg/ml, D = ovalbumin 1.0 mcg/ml
[13] = Homo sapiens, Leukocyte, conc. 2 μg/ml
[14] = Homo sapiens, Leukocyte, conc. 10 μg/ml
[15] = substance 40.00 mcg/ml, A = histamine 1.0 mcg/ml, read-out: Inhibition of constriction (percentage reduction of the constriction amplitude), spasmogen A
[16] = substance 40.00 mcg/ml, B = ovalbumin 0.1 mcg/ml, read-out: Inhibition of constriction (percentage reduction of the constriction amplitude), spasmogen B
[17] = substance 40.00 mcg/ml, C = glucose 1.16 %, read-out: Inhibition of constriction (percentage reduction of the constriction amplitude), spasmogen C
[18] = substance 40.00 mcg/ml, D = ovalbumin 1.0 mcg/ml, read-out: Inhibition of constriction (percentage reduction of the constriction amplitude), spasmogen D
[19] = substance 10.00 mcg/ml, A = histamine 1.0 mcg/ml, read-out: Inhibition of constriction (percentage reduction of the constriction amplitude), spasmogen A
[20] = substance 10.00 mcg/ml, B = ovalbumin 0.1 mcg/ml, read-out: Inhibition of constriction (percentage reduction of the constriction amplitude), spasmogen B
[21] = substance 10.00 mcg/ml, C = glucose 1.16 %, read-out: Inhibition of constriction (percentage reduction of the constriction amplitude), spasmogen C
[22] = substance 10.00 mcg/ml, D = ovalbumin 1.0 mcg/ml, read-out: Inhibition of constriction (percentage reduction of the constriction amplitude), spasmogen D
[23] = Homo sapiens, Leukocyte, conc. 90 μg/ml

C[C@@H]1CCCCC[C@H](O)[C@H](O)/C=C/C(=O)O1 [cladospolide A]
% inhibition histamine ([1]; conc. 2 μg/ml): 8% | % inhibition histamine ([1]; conc. 10 μg/ml): 44% | % inhibition proteinase ([2]; conc. 2 μg/ml): 5% | % inhibition proteinase ([2]; conc. 10 μg/ml): 46% | Inhibition of constriction (percentage reduction of the constriction amplitude), spasmogen A [3, 5]: -5% | Inhibition of constriction (percentage reduction of the constriction amplitude), spasmogen B [3, 6]: -50% | Inhibition of constriction (percentage reduction of the constriction amplitude), spasmogen C [3, 7]: -85% | Inhibition of constriction (percentage reduction of the constriction amplitude), spasmogen D [3, 8]: -76% | Inhibition of constriction (percentage reduction of the constriction amplitude), spasmogen A [3, 9]: 16% | Inhibition of constriction (percentage reduction of the constriction amplitude), spasmogen B [3, 10]: 34% | Inhibition of constriction (percentage reduction of the constriction amplitude), spasmogen C [3, 11]: 33% | Inhibition of constriction (percentage reduction of the constriction amplitude), spasmogen D [3, 12]: 24% | action on the root growth of lettuce seeds [4]: weakly inhibitingly

CC(=O)OC1C=CC(=O)OC(C)CCCCCC1OC(C)=O (stereo not drawn) [diacetylcladospolide A, Diacetylcladospolide A]
inhibition at 2 µg/mL [1, 13]: 17% | inhibition at 10 µg/mL [1, 14]: 92% | inhibition at 2 µg/mL [2, 13]: 14% | inhibition at 10 µg/mL [2, 14]: 96% | inhibition at 40 µg/mL [3, 15]: 6% | inhibition at 40 µg/mL [3, 16]: 44% | inhibition at 40 µg/mL [3, 17]: 45% | inhibition at 40 µg/mL [3, 18]: 46%

CC1CCCCCCC(=O)/C=C\C(=O)O1 (stereo not drawn) [patulolide B]
inhibition at 2 µg/mL [1, 13]: 57% | inhibition at 10 µg/mL [1, 14]: 100% | inhibition at 2 µg/mL [2, 13]: 63% | inhibition at 10 µg/mL [2, 14]: 99% | plant growth inhibition (plant growth): plant growth inhibiting | inhibition at 10 µg/mL [3, 19]: 5% | inhibition at 10 µg/mL [3, 20]: 54% | inhibition at 10 µg/mL [3, 21]: 47% | inhibition at 10 µg/mL [3, 22]: 51% | inhibition at 40 µg/mL [3, 15]: 3% | inhibition at 40 µg/mL [3, 16]: 95% | inhibition at 40 µg/mL [3, 17]: 93% | inhibition at 40 µg/mL [3, 18]: 93%

C[C@H]1CCCCC[C@H](O)[C@@H](O)/C=C\C(=O)O1 [cladospolide B]
action on the root growth of lettuce seeds [4]: promotingly

Cn1c(=O)c2[nH]cnc2n(C)c1=O [theophylline, reference compound]
inhibition at 90 µg/mL [1, 23]: 72% | inhibition at 90 µg/mL [2, 23]: 70%

C[C@@H]1CCCCCC[C@H](O)/C=C\C(=O)O1 [patulolide C]
plant growth inhibition (plant growth): plant growth inhibiting | Inhibition of constriction (percentage reduction of the constriction amplitude), spasmogen A [3, 5]: -38% | Inhibition of constriction (percentage reduction of the constriction amplitude), spasmogen B [3, 6]: -35% | Inhibition of constriction (percentage reduction of the constriction amplitude), spasmogen C [3, 7]: -98% | Inhibition of constriction (percentage reduction of the constriction amplitude), spasmogen D [3, 8]: -26% | R = relaxation ([3]; substance 40.00 mcg/ml): R | Inhibition of constriction (percentage reduction of the constriction amplitude), spasmogen A [3, 9]: -24% | Inhibition of constriction (percentage reduction of the constriction amplitude), spasmogen B [3, 10]: -40% | Inhibition of constriction (percentage reduction of the constriction amplitude), spasmogen C [3, 11]: -36% | Inhibition of constriction (percentage reduction of the constriction amplitude), spasmogen D [3, 12]: -33%

CC1CCCCCCC(=O)/C=C/C(=O)O1 (stereo not drawn) [patulolide A]
inhibition at 2 µg/mL [1, 13]: 44% | inhibition at 10 µg/mL [1, 14]: 100% | inhibition at 2 µg/mL [2, 13]: 46% | inhibition at 10 µg/mL [2, 14]: 99% | plant growth inhibition (plant growth): plant growth inhibiting | inhibition at 10 µg/mL [3, 19]: 23% | inhibition at 10 µg/mL [3, 20]: 35% | inhibition at 10 µg/mL [3, 21]: 35% | inhibition at 10 µg/mL [3, 22]: 35% | inhibition at 40 µg/mL [3, 15]: 21% | inhibition at 40 µg/mL [3, 16]: 51% | inhibition at 40 µg/mL [3, 17]: 53% | inhibition at 40 µg/mL [3, 18]: 30%

From patent US5217990A, “Use of macrolactones as anti-allergics” (Boehringer Mannheim GmbH, priority 1989, dated 1993)
